{
  "source": "patent US20230357430A1",
  "about": "“RNF167 AND CASTOR1 AS NOVEL MTOR TARGETS” (UNIVERSITY OF PITTSBURGH - OF THE COMMONWEALTH SYSTEM OF …, priority 2020, published 2023)",
  "key": {"[1]": {"system": "CASTOR1 protein level in 293T cells", "test": "CASTOR1 protein level by immunoblotting after chemical treatment", "type": "cell-based, human", "conditions": "for Flag-CASTOR1 S14D protein level: 293T cells stably expressing Flag-CASTOR1 S14D; for Flag-CASTOR1 S14D protein level / Flag-CASTOR1 WT and S14A protein level: FIG. 10B-10D; for Flag-CASTOR1 WT and S14A protein level: 293T cells stably expressing Flag-CASTOR1 WT or S14A", "experimental": "(§1) Cell culture and transfection: 293T cells obtained from ATCC (CRL-3216) were maintained in DMEM supplemented with 10% FBS. MCF7, T47D, HCC1569, and HCC202 cells were obtained from Dr. Xiaosong Wang at the University of Pittsburgh, and cultured in RPMI1640 with 10% FBS. MM cells were cultured in DMEM plus 10% FBS, while KMM cells were cultured in DMEM plus 10% FBS and 10 μg/ml hygromycin. HSAEC (FC-0016) and HLBEC (FC-0054) cells were purchased from Lifeline and cultured with the BronchiaLife™ Epithelial Airway Medium Complete Kit (Lifeline LL-0023). All cells were maintained at 37 C° in 5% CO2.\n(§2) For amino acid deprivation and re-stimulation to assess mTORC1 activation, cells were incubated in EBSS medium (Thermo 24010043) for 50 min and then stimulated by adding arginine (Sigma A5131) at the indicated concentration. For ubiquitination assays, cells were deprived of FBS or arginine, or treated with 10 μM MK2206 (Selleckem S1078) overnight before immunoprecipitation and immunoblotting, or re-stimulated with FBS or arginine for 12 h before analysis.\nFor chemical treatments, CHX (CST 2112) or MG132 (Sigma M8699) dissolved in DMSO (VWR 97061-250) was diluted in medium to a specified concentration. Medium containing MG132 or CHX was then used to replace the original medium, and cells were cultured in the presence of MG132 for a specified time.\nImmunoblotting analysis: To detect all proteins except CASTOR1, samples were separated with 4%-20% SDS-polyacrylamide gels (Genscript M00656 and M00657). To detect CASTOR1 protein, samples were resolved with 10% SDS-polyacrylamide gels (Genscript M00665 and M00666). Proteins resolved in gels were then transferred to nitrocellulose membranes (GE Healthcare 10600004), which were incubated with primary and secondary antibodies overnight and for 1 h at room temperature, respectively. The signals were developed using the Luminiata Crescendo Western HRP Substrate (EMD Millipore WBLUR0500) and SuperSignal West Femto Maximum Sensitivity Substrate (Thermo 34096) or fluorescence secondary antibodies. The images were recorded with a ChemiDoc MP Imaging System (Bio-Rad 17001402) at either Chemi, Dylight 500, DyLight 800, or StarBright B700 channels."}, "mTORC1": {"system": "mTORC1", "test": "mTORC1 activation status (pS6K, p4EBP1) by immunoblotting", "type": "cell-based, human", "conditions": "293T cells, FIG. 1C", "experimental": "as §1\nFor amino acid deprivation and re-stimulation to assess mTORC1 activation, cells were incubated in EBSS medium (Thermo 24010043) for 50 min and then stimulated by adding arginine (Sigma A5131) at the indicated concentration. […]\n(§3) Immunoblotting analysis: To detect all proteins except CASTOR1, samples were separated with 4%-20% SDS-polyacrylamide gels (Genscript M00656 and M00657). […] The signals were developed using the Luminiata Crescendo Western HRP Substrate (EMD Millipore WBLUR0500) and SuperSignal West Femto Maximum Sensitivity Substrate (Thermo 34096) or fluorescence secondary antibodies. The images were recorded with a ChemiDoc MP Imaging System (Bio-Rad 17001402) at either Chemi, Dylight 500, DyLight 800, or StarBright B700 channels."}, "CASTOR1 mRNA": {"system": "CASTOR1 mRNA", "test": "CASTOR1 mRNA level by RT-qPCR", "type": "cell-based, human", "conditions": "293T cells, FIG. 6K", "text": "Reverse transcription real-time quantitative polymerase-chain reaction (RT-qPCR): Total RNA was extracted by using TRI Reagent (Sigma T9424) based on the manufacturer's instructions. Total RNA was subjected to reverse transcription using the Maxima H Minus First Strand cDNA Synthesis Kit (Thermo K1652). SsoAdvanced™ Universal SYBR® Green Supermix Kit (Bio-Rad 172-5272) was applied for qPCR analysis. The relative mRNA levels were normalized to a house-keeping gene, which yielded 2^−ΔΔCt values. For qPCR reaction, each sample was run in triplicates with cycle threshold (Ct) values within 0.5 Ct differences among the triplicates. The primers used for gene expression were 5′[…]3′ (forward; SEQ ID NO: 22) and 5′[…]3′ (reverse; SEQ ID NO: 23) for human CASTOR1; and […] (forward; SEQ ID NO: 24) and […] (reverse; SEQ ID NO: 25) for human β-actin."}, "[2]": {"system": "CASTOR1 phosphorylation at S14", "test": "CASTOR1 phosphorylation at the AKT consensus motif (S14), immunoprecipitation and immunoblotting", "type": "cell-based, human", "conditions": "Flag-CASTOR1 in cells, FIG. 2C", "experimental": "as §2\nImmunoprecipitation. Cells were lysed in lysis buffer (50 mM Tris-HCl, with 150 mM NaCl, 1 mM EDTA, and 1% Triton X-100, pH 7.4) supplemented with a complete protease inhibitor cocktail (Thermo 78438) and phosphatase inhibitor (Thermo 78427), followed by centrifugation at 4° C. for 5 min. […]\nas §3"}, "AKT1": {"target": "T1, AKT1 (Homo sapiens, UniProt P31749)", "T1 construct": "purchased Novus Biologicals 1775-KS (GST-AKT1); H00652968-P01 (GST-CASTOR1)", "T1 sequence (P31749 whole entry)": "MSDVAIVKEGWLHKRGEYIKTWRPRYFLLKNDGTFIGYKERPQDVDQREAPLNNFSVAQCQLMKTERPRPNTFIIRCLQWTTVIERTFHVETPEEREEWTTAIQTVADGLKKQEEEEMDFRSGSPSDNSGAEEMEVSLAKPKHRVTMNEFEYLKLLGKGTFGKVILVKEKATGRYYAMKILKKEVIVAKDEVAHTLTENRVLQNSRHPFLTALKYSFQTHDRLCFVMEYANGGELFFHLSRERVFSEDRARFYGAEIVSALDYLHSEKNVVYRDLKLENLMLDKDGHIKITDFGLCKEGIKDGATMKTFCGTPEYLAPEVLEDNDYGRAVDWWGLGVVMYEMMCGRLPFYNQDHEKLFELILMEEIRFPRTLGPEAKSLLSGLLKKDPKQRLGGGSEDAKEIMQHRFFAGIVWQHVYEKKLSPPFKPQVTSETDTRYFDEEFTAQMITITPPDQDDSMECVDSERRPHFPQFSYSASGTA", "test": "In vitro kinase assay, GST-AKT1 phosphorylation of GST-CASTOR1", "type": "biochemical", "conditions": "in the presence of ATP, FIG. 2D", "experimental": "In vitro kinase assay: Recombinant GST-AKT1 protein (Novus Biologicals, 1775-KS) was mixed with GST-CASTOR1 protein (Novus Biologicals, H00652968-P01) in a 30 μl reaction mixture at room temperature for 1 h. The reaction mixture contained protease inhibitors, 100 mM HEPES (pH 7.4), 150 mM NaCl, 50 mM MgCl2,1 mM DTT, 0.01% NaN3, 1 mM ATP, 0.2 μg GST-AKT1 and 1 μg GST-CASTOR1."}, "ER+ breast cancer cells": {"system": "ER+ breast cancer cells", "test": "Endogenous CASTOR1 protein level in ER+ breast cancer cells by immunoblotting", "type": "cell-based, human", "conditions": "FIG. 13D", "experimental": "as §1\nas §3, with “M00657). To detect CASTOR1 protein, samples were resolved with 10% SDS-polyacrylamide gels (Genscript M00665 and M00666).” for “M00657).”"}, "[3]": {"target": "human CASTOR1 wild type (Flag-CASTOR1 WT) (UniProt Q8WTX7)"}, "[4]": {"target": "T2, recombinant GST-CASTOR1 protein (Novus Biologicals, H00652968-P01) (UniProt Q8WTX7)", "T2 sequence": "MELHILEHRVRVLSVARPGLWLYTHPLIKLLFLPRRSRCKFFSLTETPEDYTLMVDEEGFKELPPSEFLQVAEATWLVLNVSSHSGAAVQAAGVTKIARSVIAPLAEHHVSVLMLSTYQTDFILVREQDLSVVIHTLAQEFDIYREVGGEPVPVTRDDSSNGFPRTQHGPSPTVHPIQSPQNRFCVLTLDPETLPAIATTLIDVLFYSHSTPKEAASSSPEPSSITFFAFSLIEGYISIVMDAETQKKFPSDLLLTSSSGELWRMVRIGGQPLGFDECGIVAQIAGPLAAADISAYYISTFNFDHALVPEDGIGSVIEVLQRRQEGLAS"}, "[5]": {"target": "the molecule itself", "test": "dimerization assay, method not described (FIG. 33)"}},
  "note": "Entries after “also recorded” stand apart in the source; their conditions may differ. Peptide text beside a SMILES is read from it. * marks the point of attachment. Cbz = O=C(OCc1ccccc1)*",
  "data": [
    {"molecule": "C[C@@H]1C[C@@H]([C@H](O)CC2CC(=O)NC(=O)C2)C(=O)[C@@H](C)C1", "note": "[CHX, cycloheximide]", "values": [
      {"measurement": "Flag-CASTOR1 S14D protein level", "setting": "[1]", "value": "reduced"},
      {"measurement": "Flag-CASTOR1 WT and S14A protein level", "setting": "[1]", "value": "minimal effects on WT and S14A"}
    ]},
    {"molecule": "CC(C)C[C@@H](C=O)NC(=O)[C@H](CC(C)C)NC(=O)[C@H](CC(C)C)NC(=O)OCc1ccccc1", "note": "[MG132] (Cbz-Leu-Leu-Leu-aldehyde)", "values": [
      {"measurement": "accumulation of CASTOR1 protein", "setting": "[1]; 293T cells co-transfected with Flag-CASTOR1 and myr-HA-AKT1, FIG. 9H", "value": "increased the accumulation of CASTOR1 protein"},
      {"measurement": "Flag-CASTOR1 S14D protein level", "setting": "[1]", "value": "increased S14D protein level"},
      {"measurement": "Flag-CASTOR1 WT and S14A protein level", "setting": "[1]", "value": "minimal effects on WT and S14A"},
      {"measurement": "RNF167-mediated downregulation of CASTOR1 protein", "setting": "[1]; RNF167 overexpression, FIG. 7H", "value": "partially rescues"},
      {"measurement": "accumulation of CASTOR1 protein", "setting": "[1]; cells expressing Flag-CASTOR1 and the vector control, FIG. 9H", "value": "only had a marginal effect"}
    ]},
    {"molecule": "NC1(c2ccc(-c3nc4ccn5c(=O)[nH]nc5c4cc3-c3ccccc3)cc2)CCC1", "note": "[MK2206]", "values": [
      {"measurement": "CASTOR1 protein level", "setting": "[1]; 293T cells, FIG. 1C", "value": "upregulated CASTOR1 protein"},
      {"measurement": "mTORC1 activation", "setting": "mTORC1", "value": "decreased mTORC1 activation"},
      {"measurement": "CASTOR1 mRNA level", "setting": "CASTOR1 mRNA", "value": "but not mRNA level"},
      {"measurement": "specific phosphorylation of the AKT motif of CASTOR1 (S14)", "setting": "[2]", "value": "significantly reduced the specific phosphorylation of the AKT motif"},
      {"measurement": "phosphorylation of purified GST-CASTOR1 by purified GST-AKT1", "setting": "AKT1", "value": "abolished"},
      {"measurement": "endogenous CASTOR1 protein level", "setting": "ER+ breast cancer cells", "value": "enhanced; also recorded: increases the endogenous CASTOR1 protein level"}
    ]},
    {"molecule": "RING finger protein 167 (RNF167)", "values": [
      {"measurement": "CASTOR1 ubiquitination", "setting": "[3]", "value": "only RNF167 increased CASTOR1 ubiquitination"}
    ]},
    {"molecule": "recombinant GST-AKT1 protein (Novus Biologicals, 1775-KS)", "values": [
      {"measurement": "in vitro kinase assay: phosphorylation of GST-CASTOR1", "setting": "[4]", "value": "efficiently phosphorylated purified GST-tagged CASTOR1 (GST-CASTOR1) recombinant protein only in the presence of ATP, which was abolished by AKT inhibitor MK2206"}
    ]},
    {"molecule": "human CASTOR1 wild type (Flag-CASTOR1 WT) (other, UniProt Q8WTX7 1-329, looked up, Expressed in cells and pulled down from lysates; also called HA-CASTOR1; cytosolic arginine sensor for mTORC1 subunit 1; not shown: N-terminal Flag tag) MELHILEHRVRVLSVARPGLWLYTHPLIKLLFLPRRSRCKFFSLTETPEDYTLMVDEEGFKELPPSEFLQVAEATWLVLNVSSHSGAAVQAAGVTKIARSVIAPLAEHHVSVLMLSTYQTDFILVREQDLSVVIHTLAQEFDIYREVGGEPVPVTRDDSSNGFPRTQHGPSPTVHPIQSPQNRFCVLTLDPETLPAIATTLIDVLFYSHSTPKEAASSSPEPSSITFFAFSLIEGYISIVMDAETQKKFPSDLLLTSSSGELWRMVRIGGQPLGFDECGIVAQIAGPLAAADISAYYISTFNFDHALVPEDGIGSVIEVLQRRQEGLAS", "values": [
      {"measurement": "binding result", "setting": "[5]", "value": "binds"}
    ]}
  ]
}
